Assay results reported in patent publication US5451508A, “Method and monoclonal antibodies for vitamin B12 determination” (Boehringer Mannheim GmbH, priority 1989, dated 1995).

Test system: monoclonal antibody MAB 1 and MAB 2
Experiment: ELISA determination of the cross-reaction of vitamin B12 derivatives with the monoclonal antibodies
Assay type: binding, mice
Settings: for cross-reactivity: monoclonal antibodies according to the invention (e.g. from cell lines ECACC 88101301 and ECACC 88101302), stated in description; for cross-reaction: values identical for MAB 1 and MAB 2, antigen added at 50, 500, 5000 μg/ml, calculated from concentrations giving 50% of max. signal
Protocol: The plates are re-treated for 10 minutes with 0.9% sodium chloride solution and 1% albumin solution. Subsequently they are washed with 0.9% sodium chloride solution.
Afterwards they are incubated at 37° C. for one hour with 100 μl sample and washed again with 0.9% sodium chloride solution. In order to test the cross-reaction 50, 500 and 5000 μg/ml of the vitamin B12 derivative to be tested is added to the sample solution. A reduction of the measured signal in the presence of the derivative indicates a cross-reaction. A further incubation follows (1 hour, 37° C.) with 450 U/ml of a sheep-Fab-anti-mouse Fcγ peroxidase conjugate. After washing once again with 0.9% sodium chloride the peroxidase activity is determined in the usual way (for example with 2,2'azino-di-[3-ethylbenzthiazoline sulphonate (6)] (ABTS®), 30 minutes at room temperature, the difference in absorbance ΔmA is read at 422 nm).
The antigen to be tested for cross-reaction is added in increasing concentrations (50 μg/ml, 500 μg/ml, 5000 μg/ml) to the monoclonal antibody. Afterwards the cross-reaction is calculated from the following formula: [formula]

Cobyrinic acid-diamide
cross-reactivity: < 0.05%
cross-reaction: < 0.05

(carboxy(2-cyanamino-4,5-dimethylphenyl)-amino)-cobamide
cross-reactivity: 0.07%
cross-reaction: 0.07

2-hydroxy-5,6-dimethylbenzimidazolyl-cobamide
cross-reactivity: 1.5%
cross-reaction: 1.5

Purinylcobinamide
cross-reactivity: 1.1%
cross-reaction: 1.1

C/C1=C2/[N-][C@H]([C@H](CC(N)=O)[C@@]2(C)CCC(=O)NC[C@@H](C)OP(=O)([O-])O[C@H]2[C@@H](O)[C@@H](n3cnc4cc(C)c(C)cc43)O[C@@H]2CO)[C@]2(C)N=C(/C(C)=C3N=C(/C=C4N=C1[C@@H](CCC(N)=O)C\4(C)C)[C@@H](CCC(N)=O)[C@]\3(C)CC(N)=O)[C@@H](CCC(N)=O)[C@]2(C)CC(N)=O.[CH3-].[Co+3] [Methylcobalamin]
cross-reactivity: 100%
cross-reaction: 100
